Experiments:
[1] = molecular target: T1, p38MAPKγ (MAPK12) (Homo sapiens, UniProt P53778); assay: p38 MAPKγ enzyme inhibition (Z-LYTE FRET); format: biochemical; conditions: Table 2B, unit inferred; read-out: p38 MAPKγ (Enzyme Profile)
T1 construct: purchased Life Technologies
T1 sequence (P53778 1-367): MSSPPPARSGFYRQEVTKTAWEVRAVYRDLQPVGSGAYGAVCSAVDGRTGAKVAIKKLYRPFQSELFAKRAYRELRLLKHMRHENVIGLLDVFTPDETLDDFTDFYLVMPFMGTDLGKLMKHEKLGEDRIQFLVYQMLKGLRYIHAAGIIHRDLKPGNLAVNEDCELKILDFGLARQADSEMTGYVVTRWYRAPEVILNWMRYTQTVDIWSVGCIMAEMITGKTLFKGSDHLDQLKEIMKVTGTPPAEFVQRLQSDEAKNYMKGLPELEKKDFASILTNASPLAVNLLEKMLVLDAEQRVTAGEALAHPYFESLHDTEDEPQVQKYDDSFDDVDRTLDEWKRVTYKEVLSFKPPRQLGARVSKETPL
How it was run: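 Z-LYTE read-out: after 1 h protease development, only non-phosphorylated peptide is cleaved, and the donor/acceptor (coumarin/fluorescein) ratio reports phosphorylation. Beforehand, enzyme and compound (stock concentrations 0.0012–40 μg/mL) were preincubated 2 h at RT, then the kinase reaction ran 1 h at RT with peptide and ATP (8 μM and 400 μM stocks).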

[2] = molecular target: T2, p38 MAPKα isoform (MAPK14) (Homo sapiens, UniProt Q16539); assay: p38 MAPKα enzyme inhibition (Z-LYTE FRET); format: biochemical; conditions: Table 2B, unit inferred; read-out: p38 MAPKα (Enzyme Profile)
T2 construct: purchased Life Technologies
How it was run: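 Recombinant human MAPK14 (40 ng/mL stock) was preincubated 2 h at RT with compound (stock dilutions 0.0012-40 μg/mL). The Z-LYTE FRET read-out used a MAPKAP-K2-derived peptide, and protease development for 1 h cleaved only non-phosphorylated peptide. Phosphorylation was calculated from the coumarin/fluorescein emission ratio.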

T2 sequence (Q16539 whole entry, canonical isoform): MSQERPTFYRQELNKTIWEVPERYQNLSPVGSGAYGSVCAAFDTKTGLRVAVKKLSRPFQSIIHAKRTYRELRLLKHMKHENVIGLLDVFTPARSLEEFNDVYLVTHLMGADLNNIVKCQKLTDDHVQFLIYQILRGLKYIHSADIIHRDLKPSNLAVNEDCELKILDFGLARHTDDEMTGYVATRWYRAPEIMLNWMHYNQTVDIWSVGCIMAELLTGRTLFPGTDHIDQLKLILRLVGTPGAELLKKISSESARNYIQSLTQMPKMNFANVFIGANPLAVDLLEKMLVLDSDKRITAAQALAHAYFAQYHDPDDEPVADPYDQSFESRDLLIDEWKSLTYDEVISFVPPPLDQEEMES

IC50 [1]	IC50 [2]	Compound
> 15600 nM	64 nM	CCc1cccc(-n2nc(C(C)(C)C)cc2NC(=O)Nc2ccc(OCc3ccnc(Nc4cncc(CC)n4)c3)c3ccccc23)c1 [Example 234, 1-(3-(tert-butyl)-1-(3-ethyl-phenyl)-1H-pyrazol-5-yl)-3-(4-((2-((6-ethylpyrazin-2-yl)amino)pyridin-4-yl)methoxy)naphthalen-1-yl)urea]
29 nM	8.4 nM	CC(C)(C)c1cc(NC(=O)Nc2ccc(OCc3ccnc(Nc4cnccn4)c3)c3ccccc23)n(-c2cccc(CCO)c2)n1 [Example 237, 1-(3-(tert-butyl)-1-(3-(2-hydroxyethyl)phenyl)-1H-pyrazol-5-yl)-3-(4-((2-(pyrazin-2-ylamino)pyridin-4-yl)methoxy)naphthalen-1-yl)urea]
> 14100 nM	28 nM	Cc1cc(C)cc(-n2nc(C(C)(C)C)cc2NC(=O)Nc2ccc(OCc3ccnc(Nc4cnc(C(=O)N5CCCC5)cn4)c3)c3ccccc23)c1 [Example 218, 1-(3-(tert-butyl)-1-(3,5-dimethylphenyl)-1H-pyrazol-5-yl)-3-(4-((2-((5-(pyrrolidine-1-carbonyl)pyrazin-2-yl)amino)pyridin-4-yl)methoxy)naphthalen-1-yl)urea]
> 14100 nM	27 nM	CCc1ccc(-n2nc(C(C)(C)C)cc2NC(=O)Nc2ccc(OCc3ccnc(Nc4cnc(C(=O)N5CCCC5)cn4)c3)c3ccccc23)cc1 [Example 229, 1-(3-(tert-butyl)-1-(4-ethyl-phenyl)-1H-pyrazol-5-yl)-3-(4-((2-((5-(pyrrolidine-1-carbonyl)pyrazin-2-yl)amino)pyridin-4-yl)methoxy)naphthalen-1-yl)urea]
342 nM	14 nM	COCC1CN(C(=O)c2cnc(Nc3cc(COc4ccc(NC(=O)Nc5cc(C(C)(C)C)nn5-c5ccc(C)cc5)c5ccccc45)ccn3)cn2)C1 [Example 225, 1-(3-(tert-butyl)-1-(p-tolyl)-1H-pyrazol-5-yl)-3-(4-((2-((5-(3-(methoxymethyl)azetidine-l-carbonyl)pyrazin-2-yl)amino)pyridin-4-yl)methoxy)naphthalen-1-yl)urea]
66 nM	4.5 nM	COCc1cccc(-n2nc(C(C)(C)C)cc2NC(=O)Nc2ccc(OCc3ccnc(Nc4cnc(C(=O)NCCN5CCOCC5)cn4)c3)c3ccccc23)c1 [Example 270, 5-((4-(((4-(3-(3-(tert-butyl)-1-(3-(methoxymethyl)phenyl)-1H-pyrazol-5-yl)ureido)naphthalen-1-yl)oxy)methyl)pyridin-2-yl)amino)-N-(2-morpholinoethyl) pyrazine-2-carboxamide]
146 nM	1.2 nM	Cc1ccc(-n2nc(C(C)(C)C)cc2NC(=O)Nc2ccc(OCc3ccnc(Nc4cnc(C(=O)N5CC[C@@H](N(C)C)C5)cn4)c3)c3ccccc23)cc1 [Example 259, (R)-1-(3-(tert-butyl)-1-(p-tolyl)-1H-pyrazol-5-yl)-3-(4-((2-((5-(3-(dimethylamino)pyrrolidine-1-carbonyl)pyrazin-2-yl)amino)pyridin-4-yl)methoxy)naphthalen-1-yl)urea]
> 15600 nM	81 nM	CCc1ccc(-n2nc(C(C)(C)C)cc2NC(=O)Nc2ccc(OCc3ccnc(Nc4cnc(C)c(C)n4)c3)c3ccccc23)cc1 [Example 251, 1-(3-(tert-butyl)-1-(4-ethyl-phenyl)-1H-pyrazol-5-yl)-3-(4-((2-((5,6-dimethylpyrazin-2-yl)amino)pyridin-4-yl)methoxy)naphthalen-1-yl) urea]
458 nM	36 nM	Cc1ccc(-n2nc(C(C)(C)C)cc2NC(=O)Nc2ccc(OCc3ccnc(Nc4cnc(C(=O)N5CCC(F)CC5)cn4)c3)c3ccccc23)cc1 [Example 176, 1-(3-(tert-butyl)-1-(p-tolyl)-1H-pyrazol-5-yl)-3-(4-((2-((5-(4-fluoropiperidine-1-carbonyl)pyrazin-2-yl)amino)pyridin-4-yl)methoxy)naphthalen-1-yl)urea]
571 nM	54 nM	CCc1ccc(-n2nc(C(C)(C)C)cc2NC(=O)Nc2ccc(OCc3ccnc(Nc4cncc(CC)n4)c3)c3ccccc23)cc1 [Example 173, 1-(3-(tert-butyl)-1-(4-ethylphenyl)-1H-pyrazol-5-yl)-3-(4-((2-((6-ethylpyrazin-2-yl)amino)pyridin-4-yl)methoxy)naphthalen-1-yl) urea]
64 nM	15 nM	Cc1cc(F)cc(-n2nc(C(C)(C)C)cc2NC(=O)Nc2ccc(OCc3ccnc(Nc4cnccn4)c3)c3ccccc23)c1 [Example 181, 1-(3-(tert-butyl)-1-(3-fluoro-5-methylphenyl)-1H-pyrazol-5-yl)-3-(4-((2-(pyrazin-2-ylamino)pyridin-4-yl)methoxy)naphthalen-1-yl)urea]
1130 nM	19 nM	CC(C)(C)c1cc(NC(=O)Nc2ccc(OCc3ccnc(Nc4cnc(C(=O)N5CCCC5)cn4)c3)c3ccccc23)n(-c2cccc(F)c2)n1 [Example 202, 1-(3-(tert-butyl)-1-(3-fluorophenyl)-1H-pyrazol-5-yl)-3-(4-((2-((5-(pyrrolidine-1-carbonyl)pyrazin-2-yl)amino)pyridin-4-yl)methoxy)naphthalen-1-yl)urea]
219 nM	29 nM	COc1cc(C)cc(-n2nc(C(C)(C)C)cc2NC(=O)Nc2ccc(OCc3ccnc(Nc4cnccn4)c3)c3ccccc23)c1 [Example 196, 1-(3-(tert-butyl)-1-(3-methoxy-5-methylphenyl)-1H-pyrazol-5-yl)-3-(4-((2-(pyrazin-2-ylamino)pyridin-4-yl)methoxy)naphthalen-1-yl)urea]
98 nM	9.4 nM	Cc1ccc(-n2nc(C(C)(C)C)cc2NC(=O)Nc2ccc(OCc3ccnc(Nc4cnc(C(=O)N5CCC[C@@H](O)C5)cn4)c3)c3ccccc23)cc1 [Example 233, (R)-1-(3-(tert-butyl)-1-(p-tolyl)-1H-pyrazol-5-yl)-3-(4-((2-((5-(3-hydroxypiperidine-1-carbonyl)pyrazin-2-yl)amino)pyridin-4-yl)methoxy)naphthalen-1-yl)urea]

Second part, the compound before the results:

Compound	IC50 [1]	IC50 [2]
CCc1cncc(Nc2cc(COc3ccc(NC(=O)Nc4cc(C(C)(C)C)nn4-c4ccc(C)c(OC)c4)c4ccccc34)ccn2)n1 [Example 70]	372 nM	70 nM
CCc1cncc(Nc2cc(COc3ccc(NC(=O)Nc4cc(C(C)(C)C)nn4-c4cccc(F)c4)c4ccccc34)ccn2)n1 [Example 62]	560 nM	24 nM
Cc1ccc(-n2nc(C(C)(C)C)cc2NC(=O)Nc2ccc(OCc3ccnc(Nc4cnc(C)c(C5CC5)n4)c3)c3ccccc23)cc1 [Example 150, 1-(3-(tert-butyl)-1-(p-tolyl)-1H-pyrazol-5-yl)-3-(4-((2-((6-cyclopropyl-5-methyl-pyrazin-2-yl)amino)pyridin-4-yl)methoxy)naphthalen-1-yl)urea]	229 nM	25 nM
COC(C)(C)CNC(=O)c1cnc(Nc2cc(COc3ccc(NC(=O)Nc4cc(C(C)(C)C)nn4-c4ccc(C)cc4)c4ccccc34)ccn2)cn1 [Example 74]	482 nM	43 nM
CN(C)c1ccc(-n2nc(C(C)(C)C)cc2NC(=O)Nc2ccc(OCc3ccnc(Nc4cnccn4)c3)c3ccccc23)cn1 [Example 78]	422 nM	21 nM
COCCCc1cncc(Nc2cc(COc3ccc(NC(=O)Nc4cc(C(C)(C)C)nn4-c4ccc(C)cc4)c4ccccc34)ccn2)n1 [Example 153, 1-(3-(tert-butyl)-1-(p-tolyl)-1H-pyrazol-5-yl)-3-(4-((2-((6-(3-methoxypropyl)pyrazin-2-yl)amino)pyridin-4-yl)methoxy)naphthalen-1-yl)urea]	77 nM	20 nM
Cc1ccc(-n2nc(C(C)(C)C)cc2NC(=O)Nc2ccc(OCc3ccnc(Nc4cnc(C(=O)NCCOC(C)C)cn4)c3)c3ccccc23)cc1 [Example 124, 5-((4-(((4-(3-(3-(tert-butyl)-1-(p-tolyl)-1H-pyrazol-5-yl)ureido)naphthalen-1-yl)oxy)methyl)pyridin-2-yl)amino)-N-(2-isopropoxy-ethyl)pyrazine-2-carboxamide]	> 13700 nM	288 nM
COc1cc(-n2nc(C(C)(C)C)cc2NC(=O)Nc2ccc(OCc3ccnc(Nc4cnccn4)c3)c3ccccc23)ccc1C [Example 57]	229 nM	15 nM
Cc1ccc(-n2nc(C(C)(C)C)cc2NC(=O)Nc2ccc(OCc3ccnc(Nc4cnc(C(=O)N5CC[C@H](O)C5)cn4)c3)c3ccccc23)cc1 [Example 126, (S)-1-(3-(tert-butyl)-1-(p-tolyl)-1H-pyrazol-5-yl)-3-(4-((2-((5-(3-hydroxypyrrolidine-1-carbonyl)pyrazin-2-yl)amino)pyridin-4-yl)methoxy)naphthalen-1-yl)urea]	187 nM	47 nM
Cc1ccc(-n2nc(C(C)(C)C)cc2NC(=O)Nc2ccc(OCc3ccnc(Nc4cnc(C(=O)N5CC[C@@H](O)C5)cn4)c3)c3ccccc23)cc1 [Example 162, (R)-1-(3-(tert-butyl)-1-(p-tolyl)-1H-pyrazol-5-yl)-3-(4-((2-((5-(3-hydroxypyrrolidine-1-carbonyl)pyrazin-2-yl)amino)pyridin-4-yl)methoxy)naphthalen-1-yl)urea]	37 nM	4.7 nM

From US11142515B2, “Pyrazolyl-ureas as kinase inhibitors” (RESPIVERT LIMITED, priority 2014, dated 2021)
